# According to US4957902A, “Peptide inhibitors of wound contraction” (Board of Regents, the University of Texas System, priority 1988, dated 1990):
# Tested on: Human skin fibroblasts on collagen-coated surfaces
# Format: cell-based
# Conditions: 0.5 mg/ml peptide; serum-free DMEM; 60 minutes
# Procedure: The incubations contained peptides at the concentrations indicated and cell spreading was measured after 60 minute Method: Falcon 35 mm tissue culture dishes were coated with collagen (Vitrogen 100; 50 ug/ml in DMEM) for 15 minutes at 37° C. and counter-coated for 15 minutes with 1 mg/ml heat denatured bovine serum albumin. Human skin fibroblasts in DMEM with peptides added at the concentrations indicated were incubated on the substrata for 60 minutes at 37°. The end of the incubations, the cells were fixed and projected cell surface areas were measured by superimposing the microscopic field on the digitizing tablet of a Zidas image analyzer. Data presented are averages±95% confidence limits based on measurement of 50-100 cells. See reference 21 for complete details.
smiles,measurement,value
"N=C(N)NCCC[C@H](NC(=O)CN)C(=O)NCC(=O)N[C@@H](CC(=O)O)C(=O)N[C@@H](CO)C(=O)N1CCC[C@H]1C(=O)O [GRGDSP, Gly--Arg--Gly--Asp--Ser--Pro]",inhibition of cell spreading on collagen-coated surfaces,about 50%
